# Test results published in patent US9017692B2, “Antimicrobial agent, bacterial strain, biosynthesis, and methods of use” (priority 2011, dated 2015).
# Where two headings read alike, the source gives them in different places.
# Experiments:
# PAE.999 = assay: MIC, CLSI broth microdilution, Gram-negative clinical isolates; assay type: cell-based, Pseudomonas aeruginosa; conditions: for MIC: Pseudomonas aeruginosa, read-out: Minimum inhibitory concentration (MIC)
# Protocol: (§1) Plates were incubated at 35° C. for 24 h.
# (§2) The activity of paenibacterin was also tested against clinical isolates of the following Gram-negative bacterial strains: four strains of the species Pseudomonas aeruginosa (PAE), three strains of the species Acinetobacter baumannii (ABA), two strains of the species Escherichia coli (ECO), and four strains of the species Klebsiella pneumoniae (KPN). Particularly, the strains of Gram-negative bacteria included polymyxin B-resistant (PMB-R) and polymyxin B-sensitive (PMB-S) strains of each above listed species. The MICs were determined using the above described CLSI broth microdilution method, in which the method was performed with both non-binding surface coated (NBS) and polystyrene (PS) 96-well plates (Tables 11 and 12, respectively). The MICs were generally lower in the NBS 96-well plates as compared to the PS 96-well plates.
# PAE.2325 = assay: as above; assay type: cell-based, Pseudomonas aeruginosa; conditions: for MIC: Pseudomonas aeruginosa, read-out: Minimum inhibitory concentration (MIC)
# Protocol: as §1, §2
# PAE.44 = assay: as above; assay type: cell-based, Pseudomonas aeruginosa
# Protocol: as §1, §2
# PAE.2281 = assay: as above; assay type: cell-based, Pseudomonas aeruginosa; conditions: for MIC: Pseudomonas aeruginosa, read-out: Minimum inhibitory concentration (MIC)
# Protocol: as §1, §2
# PMB-R, KPN.2463 = assay: as above; assay type: cell-based, Klebsiella pneumoniae
# Protocol: as §1, §2
# KPN.674 = assay: as above; assay type: cell-based, Klebsiella pneumoniae; conditions: for MIC: Klebsiella pneumoniae, read-out: Minimum inhibitory concentration (MIC)
# Protocol: as §1, §2
# KPN.2317 = assay: as above; assay type: cell-based, Klebsiella pneumoniae; conditions: for MIC: Klebsiella pneumoniae, read-out: Minimum inhibitory concentration (MIC)
# Protocol: as §1, §2
# PMB-S, KPN.2461 = assay: as above; assay type: cell-based, Klebsiella pneumoniae
# Protocol: as §1, §2
# ECO.2276 = assay: as above; assay type: cell-based, Escherichia coli; conditions: for MIC: Escherichia coli, read-out: Minimum inhibitory concentration (MIC)
# Protocol: as §1, §2
# ATCC 25922 ECO.35 = assay: as above; assay type: cell-based, Escherichia coli; conditions: for MIC: Escherichia coli, read-out: Minimum inhibitory concentration (MIC)
# Protocol: as §1, §2
# MSSA ATCC 29213 SAU.42 = assay: microbe, parasite or virus in culture; conditions: Staphylococcus aureus, ATCC29213|MSSA, read-out: Minimum inhibitory concentration (MIC)
# Protocol: (§3) The activity of paenibacterin against several strains of Gram-positive and Gram-negative foodborne pathogens is summarized in Table 10. The data is reported as minimum inhibitory concentrations (MIC) as an average of three replicates for paenibacterin against the various listed bacterial strains. […] MICs were determined according to the CLSI broth microdilution method (see, Clinical and Laboratory Standards Institute (CLSI). 2009. Methods for dilution antimicrobial susceptibility tests for bacteria that grow aerobically; approved standard. […]. CLSI, Wayne, Pa.). Briefly, HPLC-purified paenibacterin was dissolved in methanol and diluted to appropriate concentration with cation-adjusted Mueller-Hinton II broth (Difco). Aliquots (25 μl) of serially-diluted paenibacterin was dispensed into wells of a 96-well plate; an equal amount of 1/10 diluted overnight bacterial culture was added to wells. Plates were incubated at 35° C. for 24 h. Cell growth after incubation was examined and determined using a microtiter plate reader at 600 nm. Concentration of paenibacterin is determined based on a molecular weight of 1604 Da.
# (§4) The activity of paenibacterin was further tested against clinical isolates of the following Gram-positive bacteria: methicillin-sensitive Staphylococcus aureus (MSSA), methicillin-resistant S. aureus (MRSA), vancomycin-sensitive Enterococcus faecalis, vancomycin-resistant E. faecalis (VRE), Streptococcus pneumoniae, and laboratory derived daptomycin-resistant (DR) MSSA, MRSA, and VRE strains. The MICs were determined using the above described CLSI broth microdilution method, in which the method was performed with non-binding surface coated (NBS) 96-well plates.
# [1] = tested on: DR-VRE from EFS.807 EFS.2731; assay: microbe, parasite or virus in culture; conditions: Enterococcus faecalis, VRE, read-out: Minimum inhibitory concentration (MIC)
# Protocol: as §3, §4
# [2] = tested on: DR-MSSA from SAU.42 SAU.278; assay: microbe, parasite or virus in culture; conditions: Staphylococcus aureus, MSSA, read-out: Minimum inhibitory concentration (MIC)
# Protocol: as §3, §4
# WT ATCC 49619 SPN.31 = assay: microbe, parasite or virus in culture; conditions: Streptococcus pneumoniae, ATCC49619, read-out: Minimum inhibitory concentration (MIC)
# Protocol: as §3, §4
# MRSA ATCC 43300 SAU.399 = assay: microbe, parasite or virus in culture; conditions: Staphylococcus aureus, ATCC43300|MRSA, read-out: Minimum inhibitory concentration (MIC)
# Protocol: as §3, §4
# [3] = tested on: DS-VRE ATCC 700802 EFS.807; assay: microbe, parasite or virus in culture; conditions: Enterococcus faecalis, ATCC700802|VRE, read-out: Minimum inhibitory concentration (MIC)
# Protocol: as §3, §4
# WT ATCC 29212 EFS.43 = assay: microbe, parasite or virus in culture; conditions: Enterococcus faecalis, ATCC29212, read-out: Minimum inhibitory concentration (MIC)
# Protocol: as §3, §4
# [4] = tested on: DR-MRSA from MW2 SP SAU.1616; assay: microbe, parasite or virus in culture; conditions: Staphylococcus aureus, MRSA, read-out: Minimum inhibitory concentration (MIC)
# Protocol: as §3, §4
# ABA.1570 = assay: MIC, CLSI broth microdilution, Gram-negative clinical isolates; assay type: cell-based, Acinetobacter baumannii; conditions: for MIC: Acinetobacter baumannii, read-out: Minimum inhibitory concentration (MIC)
# Protocol: as §1, §2
# ABA.2315 = assay: as above; assay type: cell-based, Acinetobacter baumannii
# Protocol: as §1, §2
# ABA.2232 = assay: as above; assay type: cell-based, Acinetobacter baumannii; conditions: for MIC: Acinetobacter baumannii, read-out: Minimum inhibitory concentration (MIC)
# Protocol: as §1, §2
# [5] = polystyrene (PS) 96-well plates
compound,measurement,setting,value
NC[C@H]1O[C@H](O[C@H]2[C@H](O)[C@@H](O[C@H]3O[C@H](CO)[C@@H](O)[C@H](N)[C@H]3O)[C@H](N)C[C@@H]2N)[C@H](N)C[C@@H]1O [tobramycin],MIC,PAE.999; NBS 96-well plates,32 µg/mL
same,MIC,PAE.999; PS 96-well plates,> 32 µg/mL
same,MIC,PAE.2325; NBS 96-well plates,> 32 µg/mL
same,MIC,PAE.2325; PS 96-well plates,> 32 µg/mL
same,MIC,"PAE.44; Pseudomonas aeruginosa, non-binding surface coated (NBS) 96-well plates, read-out: Minimum inhibitory concentration (MIC)",0.5 µg/mL
same,Minimum inhibitory concentration (MIC),PAE.44; [5],0.5 µg/mL
same,MIC,PAE.2281; NBS 96-well plates,1 to 2 µg/mL
same,MIC,PAE.2281; PS 96-well plates,1 µg/mL
same,Minimum inhibitory concentration (MIC),"PMB-R, KPN.2463; KPN.2463, PS 96-well plates",32 µg/mL
same,MIC,"PMB-R, KPN.2463; Klebsiella pneumoniae, KPN.2463 (PMB-R), NBS 96-well plates, read-out: Minimum inhibitory concentration (MIC)",32 µg/mL
same,MIC,KPN.674; NBS 96-well plates,8 µg/mL
same,MIC,KPN.674; PS 96-well plates,8 µg/mL
same,MIC,KPN.2317; NBS 96-well plates,> 32 µg/mL
same,MIC,KPN.2317; PS 96-well plates,> 32 µg/mL
same,Minimum inhibitory concentration (MIC),"PMB-S, KPN.2461; KPN.2461, PS 96-well plates",32 µg/mL
same,MIC,"PMB-S, KPN.2461; Klebsiella pneumoniae, KPN.2461 (PMB-S), NBS 96-well plates, read-out: Minimum inhibitory concentration (MIC)",32 µg/mL
same,MIC,ECO.2276; NBS 96-well plates,1 to 2 µg/mL
same,MIC,ECO.2276; PS 96-well plates,2 µg/mL
same,MIC,"ATCC 25922 ECO.35; ATCC25922, ECO.35 (ATCC 25922), NBS 96-well plates",1 µg/mL
same,MIC,"ATCC 25922 ECO.35; ATCC25922, ECO.35, PS 96-well plates",1 µg/mL
same,MIC,MSSA ATCC 29213 SAU.42,0.5 µg/mL
same,MIC,[1],> 32 µg/mL
same,MIC,[2],0.5 µg/mL
same,MIC,WT ATCC 49619 SPN.31,0.25 µg/mL
same,MIC,MRSA ATCC 43300 SAU.399,> 32 µg/mL
same,MIC,[3],> 32 µg/mL
same,MIC,WT ATCC 29212 EFS.43,8 µg/mL
same,MIC,[4],0.5 µg/mL
same,MIC,ABA.1570; NBS 96-well plates,32 µg/mL
same,MIC,ABA.1570; PS 96-well plates,16 µg/mL
same,MIC,"ABA.2315; Acinetobacter baumannii, NBS 96-well plates, read-out: Minimum inhibitory concentration (MIC)",> 32 µg/mL
same,Minimum inhibitory concentration (MIC),ABA.2315; PS 96-well plates,>32 µg/mL
same,MIC,ABA.2232; NBS 96-well plates,0.5 µg/mL
same,MIC,ABA.2232; PS 96-well plates,1 µg/mL
CN[C@H](CC(C)C)C(=O)N[C@H]1C(=O)N[C@@H](CC(N)=O)C(=O)N[C@H]2C(=O)N[C@H]3C(=O)N[C@H](C(=O)N[C@H](C(=O)O)c4cc(O)cc(O)c4-c4cc3ccc4O)[C@H](O)c3ccc(c(Cl)c3)Oc3cc2cc(c3O[C@@H]2O[C@H](CO)[C@@H](O)[C@H](O)[C@H]2O[C@H]2C[C@](C)(N)[C@H](O)[C@H](C)O2)Oc2ccc(cc2Cl)[C@H]1O [vancomycin],MIC,MSSA ATCC 29213 SAU.42,1 µg/mL
same,MIC,[1],32 µg/mL
same,MIC,[2],2 µg/mL
same,MIC,WT ATCC 49619 SPN.31,16 µg/mL
same,MIC,MRSA ATCC 43300 SAU.399,2 µg/mL
same,MIC,[3],16 to 32 µg/mL
same,MIC,WT ATCC 29212 EFS.43,2 to 4 µg/mL
same,MIC,[4],2 µg/mL
polymyxin B sulfate,Minimum inhibitory concentration (MIC),PAE.999; NBS 96-well plates,0.25 µg/mL
same,Minimum inhibitory concentration (MIC),PAE.999; PS 96-well plates,2 µg/mL
same,Minimum inhibitory concentration (MIC),PAE.2325; NBS 96-well plates,0.25 µg/mL
same,Minimum inhibitory concentration (MIC),PAE.2325; PS 96-well plates,2 µg/mL
same,Minimum inhibitory concentration (MIC),PAE.44; non-binding surface coated (NBS) 96-well plates,0.125 µg/mL
same,Minimum inhibitory concentration (MIC),PAE.44; [5],2 µg/mL
same,Minimum inhibitory concentration (MIC),PAE.2281; NBS 96-well plates,16 µg/mL
same,Minimum inhibitory concentration (MIC),PAE.2281; PS 96-well plates,16 µg/mL
same,Minimum inhibitory concentration (MIC),"PMB-R, KPN.2463; KPN.2463 (PMB-R), NBS 96-well plates",2 to 8 µg/mL
same,Minimum inhibitory concentration (MIC),"PMB-R, KPN.2463; KPN.2463, PS 96-well plates",32 µg/mL
same,Minimum inhibitory concentration (MIC),KPN.674; NBS 96-well plates,0.125 µg/mL
same,Minimum inhibitory concentration (MIC),KPN.674; PS 96-well plates,2 µg/mL
same,Minimum inhibitory concentration (MIC),KPN.2317; NBS 96-well plates,>64 µg/mL
same,Minimum inhibitory concentration (MIC),KPN.2317; PS 96-well plates,>64 µg/mL
same,Minimum inhibitory concentration (MIC),"PMB-S, KPN.2461; KPN.2461 (PMB-S), NBS 96-well plates",0.06 to 0.13 µg/mL
same,Minimum inhibitory concentration (MIC),"PMB-S, KPN.2461; KPN.2461, PS 96-well plates",2 µg/mL
same,Minimum inhibitory concentration (MIC),ECO.2276; NBS 96-well plates,8 µg/mL
same,Minimum inhibitory concentration (MIC),ECO.2276; PS 96-well plates,8 µg/mL
same,Minimum inhibitory concentration (MIC),"ATCC 25922 ECO.35; ECO.35 (ATCC 25922), NBS 96-well plates",0.06 µg/mL
same,Minimum inhibitory concentration (MIC),"ATCC 25922 ECO.35; ECO.35, PS 96-well plates",2 µg/mL
same,Minimum inhibitory concentration (MIC),ABA.1570; NBS 96-well plates,0.0625 µg/mL
same,Minimum inhibitory concentration (MIC),"ABA.1570; NBS 96-well plates, listed as polymyxin B",0.06 µg/mL
same,Minimum inhibitory concentration (MIC),ABA.1570; PS 96-well plates,2 µg/mL
same,Minimum inhibitory concentration (MIC),ABA.2315; NBS 96-well plates,8 µg/mL
same,Minimum inhibitory concentration (MIC),ABA.2315; PS 96-well plates,64 µg/mL
same,Minimum inhibitory concentration (MIC),ABA.2232; NBS 96-well plates,0.06 µg/mL
same,Minimum inhibitory concentration (MIC),ABA.2232; PS 96-well plates,2 µg/mL
